From patent publication US10160762B2, “6-alkyl dihydropyrazolopyrimidinone compounds as PDE2 inhibitors” (Merck Sharp & Dohme Corp., priority 2015, dated 2018) come the findings set out here.

SMILES strings stand for the structures. Bounds are passed on as bounds.

The target of the experiment is T1, human PDE2A1 (Homo sapiens, UniProt O00408).
T1 construct: GST; purchased BPS Bioscience (San Diego, Calif.) 60020; host or cells: insect cells
Put plainly: IMAP FP PDE assay, human PDE2A1. It is filed as biochemical. To be noted: Lab B; read-out: Human PDE2 Ki (nM) Lab B. The method in brief:
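GST-tagged human PDE2A1 from insect cells; substrate 50 nM FAM-cAMP containing 1000 nM cGMP in Tris pH 7.2/MgCl2/DTT buffer, enzyme giving 20% conversion. 60 min at room temperature, IMAP binding reagent, fluorescence polarization read. Apparent Ki from FP readings using apparent KM 10,000 nM; ten-point 3-fold titrations.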

T1 sequence (O00408 1-920 isoform O00408-2): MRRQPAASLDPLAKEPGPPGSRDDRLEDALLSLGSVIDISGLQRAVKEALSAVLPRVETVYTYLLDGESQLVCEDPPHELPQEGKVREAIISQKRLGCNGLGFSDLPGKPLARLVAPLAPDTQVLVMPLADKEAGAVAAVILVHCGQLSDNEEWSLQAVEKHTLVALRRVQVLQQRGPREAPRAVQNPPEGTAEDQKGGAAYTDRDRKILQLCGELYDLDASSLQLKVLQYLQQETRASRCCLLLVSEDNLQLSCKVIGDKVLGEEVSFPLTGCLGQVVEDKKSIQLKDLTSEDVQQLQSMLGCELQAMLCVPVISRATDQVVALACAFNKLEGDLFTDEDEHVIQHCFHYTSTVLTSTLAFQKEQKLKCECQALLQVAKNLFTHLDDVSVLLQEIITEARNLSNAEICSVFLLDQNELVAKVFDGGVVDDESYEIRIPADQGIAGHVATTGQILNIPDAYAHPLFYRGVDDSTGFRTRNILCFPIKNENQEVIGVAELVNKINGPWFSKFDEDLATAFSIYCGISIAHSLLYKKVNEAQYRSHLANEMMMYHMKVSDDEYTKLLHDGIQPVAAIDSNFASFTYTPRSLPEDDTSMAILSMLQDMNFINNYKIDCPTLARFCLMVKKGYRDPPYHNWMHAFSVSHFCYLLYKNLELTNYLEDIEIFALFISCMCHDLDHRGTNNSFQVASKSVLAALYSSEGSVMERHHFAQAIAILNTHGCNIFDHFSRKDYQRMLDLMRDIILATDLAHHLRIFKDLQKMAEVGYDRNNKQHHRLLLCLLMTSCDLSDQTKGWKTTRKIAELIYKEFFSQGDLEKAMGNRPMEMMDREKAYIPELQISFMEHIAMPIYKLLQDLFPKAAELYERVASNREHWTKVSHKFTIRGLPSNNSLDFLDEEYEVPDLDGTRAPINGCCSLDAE

For `Cc1nc2c(c(CC(C)O)nn2C(C)c2ccc(C(F)(F)F)cc2)c(=O)[nH]1` (single isomer, unassigned) [Example 245], the Ki was 72 nM.

Regarding `Cc1nc2c(c(CO)nn2C2(c3ccc(C(F)(F)F)cc3)COC2)c(=O)[nH]1` [Example 79, 3-(Hydroxymethyl)-6-methyl-1-(3-(4-(trifluoromethyl)phenyl)oxetan-3-yl)-1H-pyrazolo[3,4-d]pyrimidin-4(5H)-one], the inhibitory constant (Ki) stood at 23 nM.

Take `Cc1nc2c(c(CC(C)O)nn2C(C)c2ccc(C(F)(F)F)cc2)c(=O)[nH]1` (single isomer, unassigned) [Example 244]: the Ki came out at 386 nM.

With `Cc1nc2c(c(CO)nn2C(C)c2ccc(C(F)(F)C(F)(F)F)cc2)c(=O)[nH]1` (single isomer, unassigned) [Example 99, (S)- or (R)-3-(Hydroxymethyl)-6-methyl-1-(1-(4-(perfluoroethyl)phenyl)ethyl)-1H-pyrazolo[3,4-d]pyrimidin-4(5H)-one], the Ki was 4.5 nM.

Regarding `CC(c1ccc(C(F)(F)F)cc1)n1nc(C#N)c2c(=O)[nH]c(CC3CCCC3)nc21` (single isomer, unassigned) [Example 350], the Ki worked out at 62 nM.

Consider `CC(c1ccc(C(F)(F)F)cc1)n1nc(CO)c2c(=O)[nH]c(CC3CC3)nc21` (single isomer, unassigned) [Example 310, (S)- or (R)-6-(Cyclopropyl-methyl)-3-(hydroxymethyl)-1-(1-(4-(trifluoromethyl)phenyl)ethyl)-1,5-dihydro-4H-pyrazolo[3,4-d]pyrimidin-4-one], for which the Ki was found to be 11 nM.

Take `Cc1nc2c(c(-c3ccn[nH]3)nn2C(C)c2ccc(C(F)(F)F)cc2)c(=O)[nH]1` (single isomer, unassigned) [Example 235]: the Ki was 25 nM.

In the case of `CC(c1ccc(C(F)(F)F)cc1)n1nc(CO)c2c(=O)[nH]c(C3CCCO3)nc21` (single isomer, unassigned) [Example 314, (S,R)- or (R,R)- or (S,S)- or (R,S)-3-(Hydroxymethyl)-6-(tetrahydrofuran-2-yl)-1-(1-(4-(trifluoromethyl)-phenyl)ethyl)-1,5-dihydro-4H-pyrazolo[3,4-d]pyrimidin-4-one], the Ki turned out to be 38 nM.

For `Cc1nc2c(c(CO)nn2C2CCc3cc(C(F)(F)F)ccc32)c(=O)[nH]1` (single isomer, unassigned) [Example 102, (R)- or (S)-3-(Hydroxymethyl)-6-methyl-1-(5-(trifluoromethyl)-2,3-dihydro-1H-inden-1-yl)-1H-pyrazolo[3,4-d]pyrimidin-4(5H)-one], the Ki was > 2960 nM.

As to `CC(c1ccc(C(F)(F)F)cc1)n1nc(CO)c2c(=O)[nH]c(CC3CC3)nc21` (single isomer, unassigned) [Example 309, (R)- or (S)-6-(Cyclopropyl-methyl)-3-(hydroxymethyl)-1-(1-(4-(trifluoromethyl)phenyl)ethyl)-1,5-dihydro-4H-pyrazolo[3,4-d]pyrimidin-4-one], the Ki is 420 nM.

For `Cc1nc2c(c(C(F)(F)F)nn2C(C)c2ccc(C(F)(F)F)cc2)c(=O)[nH]1` (single isomer, unassigned) [Example 69, (S)- or-(R)-6-Methyl-3-(trifluoromethyl)-1-(1-(4-(trifluoromethyl)phenyl)ethyl)-1H-pyrazolo[3,4-d]pyrimidin-4(5H)-one], the Ki came to 713 nM.

As to `Cc1nc2c(c(CO)nn2C(C)c2c(F)cc(C(F)(F)F)cc2F)c(=O)[nH]1` (single isomer, unassigned) [Example 137], the Ki came out at 121 nM.

Consider `Cc1nc2c(c(CO)nn2C(C)c2ccc(C(F)(F)F)s2)c(=O)[nH]1` (single isomer, unassigned) [Example 156, (S)- or (R)-3-(Hydroxymethyl)-6-methyl-1-(1-(5-(trifluoromethyl)thiophen-2-yl)ethyl)-1H-pyrazolo[3,4-d]pyrimidin-4(5H)-one], for which the Ki is 8.5 nM.

`Cc1nc2c(c(-c3ccn[nH]3)nn2C(C)c2ccc(C(F)(F)F)cc2)c(=O)[nH]1` (single isomer, unassigned) [Example 236]: the Ki stood at 76 nM.

Regarding `CNC(=O)c1nn(C(C)c2ccc(C(F)(F)F)cc2)c2nc(C)[nH]c(=O)c12` (single isomer, unassigned) [Example 265], the Ki came to 375 nM.

`Cc1nc2c(c(CO)nn2C(C)c2ccc(S(F)(F)(F)(F)F)cc2F)c(=O)[nH]1` (single isomer, unassigned) [Example 120]: the Ki was 496 nM.

For `Cc1nc2c(c(CO)nn2C(C)c2ccc(C(F)(F)F)cc2Cl)c(=O)[nH]1` (single isomer, unassigned) [Example 18, (R)- or (S)-1-(1-(2-Chloro-4-(trifluoromethyl)phenyl)ethyl)-3-(hydroxymethyl)-6-methyl-1H-pyrazolo[3,4-d]pyrimidin-4(5H)-one], the inhibition constant (Ki) was ~2850 nM.

`CC1CCC(Cc2nc3c(c(CO)nn3C(C)c3ccc(C(F)(F)F)cc3)c(=O)[nH]2)O1` (racemic) [Example 298, 3-(Hydroxymethyl)-6-[(5-methyltetrahydrofuran-2-yl)methyl]-1-{1-[4-(trifluoromethyl)phenyl]ethyl}-1,5-dihydro-4H-pyrazolo[3,4-d]pyrimidin-4-one]: the Ki amounted to 62 nM.

With `CCC(c1ccc(OC(F)(F)F)cc1)n1nc(CO)c2c(=O)[nH]c(C)nc21` (single isomer, unassigned) [Example 135, (S)- or (R)-3-(Hydroxymethyl)-6-methyl-1-(1-(4-(trifluoro-methoxy)phenyl)propyl)-1H-pyrazolo[3,4-d]pyrimidin-4(5H)-one], the Ki is 1 nM.

As for `CC(=O)NCc1nn(C(C)c2ccc(C(F)(F)F)cc2)c2nc(C)[nH]c(=O)c12` (single isomer, unassigned) [Example 277], the Ki is ~1300 nM.

For the molecule `Cc1nc2c(c(C(F)F)nn2C(C)c2ccc(OC(F)(F)F)c(F)c2)c(=O)[nH]1` (single isomer, unassigned) [Example 170, (S)- or (R)-3-(Difluoromethyl)-1-(1-(3-fluoro-4-(trifluoromethoxy)phenyl)ethyl)-6-methyl-1H-pyrazolo [3,4-d]pyrimidin-4(5H)-one], the Ki worked out at 0.48 nM.

Consider `CC(c1ccc(C(F)(F)F)cc1)n1nc(CO)c2c(=O)[nH]c(C3CC3)nc21` (single isomer, unassigned) [Example 299, (R)- or (S)-6-Cyclopropyl-3-(hydroxymethyl)-1-{1-[4-(trifluoromethyl)phenyl]ethyl}-1,5-dihydro-4H-pyrazolo[3,4-d]pyrimidin-4-one], for which the Ki is 157 nM.

For the molecule `Cc1nc2c(c(CC(F)(F)F)nn2C(c2ccc(C(F)(F)F)c(F)c2)C(C)(C)C)c(=O)[nH]1` (single isomer, unassigned) [Example 60, (R)- or (S)-1-(1-(3-Fluoro-4-(trifluoromethyl)phenyl)-2,2-dimethylpropyl)-6-methyl-3-(2,2,2-trifluoroethyl)-1H-pyrazolo[3,4-d]pyrimidin-4(5H)-one], the Ki was > 2960 nM.

Take `Cc1nc2c(c(C(F)F)nn2C(C)c2ccc(C(F)(F)F)cc2F)c(=O)[nH]1` (single isomer, unassigned) [Example 185, (R)- or (S)-3-(Difluoro-methyl)-1-(1-(2-fluoro-4-(trifluoro-methyl)phenyl)-ethyl)-6-methyl-1H-pyrazolo[3,4-d]pyrimidin-4(5H)-one]: the Ki was determined as 303 nM.

Turning to `Cc1nc2c(c(C(F)F)nn2C(C)c2ccc(OC(F)F)cc2)c(=O)[nH]1` (single isomer, unassigned) [Example 181, (R)- or (S)-1-(1-(4-(Difluoromethoxy)phenyl)ethyl)-3-(difluoromethyl)-6-methyl-1H-pyrazolo[3,4-d]pyrimidin-4(5H)-one], the Ki was found to be 82 nM.

On to `Cc1nc2c(c(CO)nn2C(C)c2ccc(OC(F)F)cc2F)c(=O)[nH]1` (single isomer, unassigned) [Example 119, (S)- or (R)-1-(1-(4-(Difluoromethoxy)-2-fluorophenypethyl)-3-(hydroxymethyl)-6-methyl-1H-pyrazolo[3,4-d]pyrimidin-4(5H)-one], for which the Ki is 2.7 nM.

For `CC(c1ccc(C(F)(F)F)cc1)n1nc(C#N)c2c(=O)[nH]c(CC3CC3)nc21` (single isomer, unassigned) [Example 347], the Ki turned out to be 1030 nM.

Regarding `Cc1nc2c(c(OCC(F)(F)F)nn2C(C)c2ccc(C(F)(F)F)cc2)c(=O)[nH]1` (single isomer, unassigned) [Example 288], the Ki amounted to 350 nM.

With `Cc1nc2c(c(CC(F)(F)F)nn2C(C)c2ccc(OC(F)(F)F)cc2)c(=O)[nH]1` (single isomer, unassigned) [Example 66, (R)- or (S)-6-Methyl-3-(2,2,2-trifluoroethyl)-1-(1-(4-(trifluoromethoxy)phenyl)ethyl)-1H-pyrazolo[3,4-d]pyrimidin-4(5H)-one], the Ki came out at 327 nM.

For the molecule `Cc1nc2c(c(CO)nn2C(C)c2ccc(C3(C)CC3)cc2)c(=O)[nH]1` (single isomer, unassigned) [Example 143, (R)- or (S)-3-(Hydroxymethyl)-6-methyl-1-(1-(4-(1-methylcyclopropyl)phenyl)ethyl)-1H-pyrazolo[3,4-d]pyrimidin-4(5H)-one], the Ki worked out at 193 nM.

`Cc1nc2c(c(CO)nn2C(CC(F)(F)F)c2ccc(C(F)(F)F)cc2)c(=O)[nH]1` (single isomer, unassigned) [Example 97, (S)- or (R)-3-(Hydroxymethyl)-6-methyl-1-(3,3,3-trifluoro-1-(4-(trifluoromethyl)phenyl)propyl)-1H-pyrazolo[3,4-d]pyrimidin-4(5H)-one]: the Ki came out at 467 nM.

For the molecule `CC(c1ccc(C(F)(F)F)cc1)n1nc(CO)c2c(=O)[nH]c(CC3CCCC3)nc21` (single isomer, unassigned) [Example 308, (S)- or (R)-6-(Cyclopentyl-methyl)-3-(hydroxymethyl)-1-(1-(4-(trifluoromethyl)phenyl)ethyl)-1,5-dihydro-4H-pyrazolo[3,4-d]pyrimidin-4-one], the Ki was determined as 329 nM.
